Target: human orexin-2 receptor (Homo sapiens (Human), UniProt O43614)
Assay: Human orexin 2 receptor radioligand binding ([3H]-EMPA competition)
Conditions: HEK293 cells stably expressing human orexin-2 receptor; [3H]-EMPA 5 nM final; apparent Ki=IC50/(1+C/Kd), Kd=2 nM; read-out: OR 2 Ki

Chain of human orexin-2 receptor (O43614 whole entry): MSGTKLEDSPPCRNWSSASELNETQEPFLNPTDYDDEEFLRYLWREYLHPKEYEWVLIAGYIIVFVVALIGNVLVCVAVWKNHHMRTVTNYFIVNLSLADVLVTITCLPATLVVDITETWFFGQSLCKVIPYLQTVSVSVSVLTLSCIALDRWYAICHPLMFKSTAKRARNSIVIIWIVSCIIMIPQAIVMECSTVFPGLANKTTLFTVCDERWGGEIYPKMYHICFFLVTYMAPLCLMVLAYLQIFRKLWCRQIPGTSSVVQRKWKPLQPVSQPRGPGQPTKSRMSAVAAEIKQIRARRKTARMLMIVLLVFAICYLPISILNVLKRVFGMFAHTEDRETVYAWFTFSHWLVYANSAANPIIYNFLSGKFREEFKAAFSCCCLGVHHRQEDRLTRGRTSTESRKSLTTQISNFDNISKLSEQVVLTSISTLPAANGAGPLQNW

| Structure (SMILES) | Ki |
| --- | --- |
| CN(C)c1cc(N2CC3CN(C(=O)c4ccc(F)cc4-n4nccn4)CC3C2)nc(C(F)(F)F)n1 (stereo not shown) [Example 6, 6-[5-{[4-Fluoro-2-(2H-1,2,3-triazol-2-yl)phenyl]carbonyl}hexahydropyrrolo[3,4-c]pyrrol-2(1H)-yl]-N,N-dimethyl-2-(trifluoromethyl)pyrimidin-4-amine] | 67 nM |
| O=C(c1ccccc1-c1ccccc1)N1CC2CN(c3nccc(-c4cn[nH]c4)n3)CC2C1 (stereo not shown) [Example 61, 2-(Biphenyl-2-ylcarbonyl)-5-[4-(1H-pyrazol-4-yl)pyrimidin-2-yl]octahydro-pyrrolo[3,4-c]pyrrole] | 224 nM |
| Cc1cc(C)nc(N2CC3CN(C(=O)c4ccc(C)nc4-n4ccnn4)CC3C2)n1 (stereo not shown) [Example 336, [5-(4,6-Dimethyl-pyrimidin-2-yl)-hexahydro-pyrrolo[3,4-c]pyrrol-2-yl]-(6-methyl-2-[1,2,3]triazol-1-yl-pyridin-3-yl)-methanone] | 288 nM |
| Cc1cc(C)nc(N2CC3CN(C(=O)c4cccc5ccccc45)CC3C2)n1 (stereo not shown) [Example 93, 2-(4,6-Dimethylpyrimidin-2-yl)-5-(naphthalen-1-ylcarbonyl)octahydropyrrolo[3,4-c]pyrrole] | 64 nM |
| O=C(c1c(F)cccc1-n1nccn1)N1CC2CN(c3cnc4cc(F)c(F)cc4n3)CC2C1 (stereo not shown) [Example 246, (5-(6,7-Difluoroquinoxalin-2-yl)hexahydropyrrolo[3,4-c]pyrrol-2(1H)-yl)(2-fluoro-6-(2H-1,2,3-triazol-2-yl)phenyl)methanone] | 11 nM |
| CCOc1cccc(OCC)c1C(=O)N1CC2CN(c3nc(C)cc(C)n3)CC2C1 (stereo not shown) [Example 229, 2-[(2,6-Diethoxyphenyl)carbonyl]-5-(4,6-dimethylpyrimidin-2-yl)octahydropyrrolo[3,4-c]pyrrole] | 319 nM |
| Cc1ccnc(N2CC3CN(C(=O)c4ccccc4-c4cccs4)CC3C2)c1 (stereo not shown) [Example 136, 2-(4-Methylpyridin-2-yl)-5-[(2-thiophen-2-ylphenyl)carbonyl]octahydropyrrolo[3,4-c]pyrrole] | 104 nM |
| COc1ccc(C(=O)N2CC3CN(c4nc5ccc(F)cc5s4)CC3C2)c(OC)c1 (stereo not shown) [Example 16, 2-{5-[(2,4-Dimethoxyphenyl)carbonyl]hexahydropyrrolo[3,4-c]pyrrol-2(1H)-yl}-6-fluoro-1,3-benzothiazole] | 300 nM |
| COc1ccc(C(=O)N2CC3CN(c4cccc(C)n4)CC3C2)c(OC)c1 (stereo not shown) [Example 185, (2,4-Dimethoxy-phenyl)-[5-(6-methyl-pyridin-2-yl)-hexahydro-pyrrolo[3,4-c]pyrrol-2-yl]-methanone] | 9000 nM |
| CCc1ccccc1C(=O)N1CC2CN(c3nc(C)cc(C)n3)CC2C1 (stereo not shown) [Example 76, 2-(4,6-Dimethylpyrimidin-2-yl)-5-[(2-ethylphenyl)carbonyl]octahydropyrrolo[3,4-c]pyrrole] | 237 nM |
| COc1ccc(C(C)(C)C)cc1C(=O)N1CC2CN(c3nc(C)cc(C)n3)CC2C1 (stereo not shown) [Example 330, (5-tert-Butyl-2-methoxy-phenyl)-[5-(4,6-dimethyl-pyrimidin-2-yl)-hexahydro-pyrrolo[3,4-c]pyrrol-2-yl]-methanone] | 10000 nM |
| O=C(c1ccccc1-c1nnc[nH]1)N1CC2CN(c3nccc(-c4ccccc4)n3)CC2C1 (stereo not shown) [Example 141, [5-(4-Phenyl-pyrimidin-2-yl)-hexahydro-pyrrolo[3,4-c]pyrrol-2-yl]-[2-(4H-[1,2,4]triazol-3-yl)-phenyl]-methanone] | 1030 nM |
| COc1ccnc(N2CC3CN(C(=O)c4cc(F)ccc4-c4ncccn4)CC3C2)n1 (stereo not shown) [Example 150, 2-[(5-Fluoro-2-pyrimidin-2-ylphenyl)carbonyl]-5-(4-methoxypyrimidin-2-yl)octahydropyrrolo[3,4-c]pyrrole] | 92 nM |
| COc1cccc(C(=O)N2CC3CN(c4nc(C)cc(C)n4)CC3C2)c1OC (stereo not shown) [Example 273, (2,3-Dimethoxyphenyl)(5-(4,6-dimethylpyrimidin-2-yl)hexahydropyrrolo[3,4-c]pyrrol-2(1H)-yl)methanone] | 5000 nM |
| Cc1nc(N2CC3CN(C(=O)c4ccccc4-c4ncn(C)n4)CC3C2)nc(C)c1Cl (stereo not shown) [Example 320, 2-(5-Chloro-4,6-dimethylpyrimidin-2-yl)-5-{[2-(1-methyl-1H-1,2,4-triazol-3-yl)phenyl]carbonyl}octahydropyrrolo[3,4-c]pyrrole] | 4 nM |
| COc1ccc(-n2nccn2)c(C(=O)N2CC3CN(c4nc(C)c(C)c(C)n4)CC3C2)c1 (stereo not shown) [Example 241, (5-Methoxy-2-(2H-1,2,3-triazol-2-yl)phenyl)(5-(4,5,6-trimethylpyrimidin-2-yl)hexahydropyrrolo[3,4-c]pyrrol-2(1H)-yl)methanone] | 17 nM |

— patent US8653263B2 (Janssen Pharmaceutica, priority 2009, dated 2014)
